Measurements: patent US20160263110A1 (priority 2013, published 2016)
“And” between values parts separate entries of the source, which are not always exact repeats. Equal values may be shown once. “Also recorded” adds a separate entry of the source. Read-outs that look alike come from different tables or passages of the source.

Columns and labels:
ALS mouse model = details: list of drugs tested in ALS, Zoccolella et al. 2009; cited from earlier work
[1] = list of drugs tested in ALS, Zoccolella et al. 2009; cited from earlier work
ALS patients = details: list of drugs tested in ALS, Zoccolella et al. 2009; cited from earlier work
[2] = safety data in non-oncology indications; assay type: in vivo
[3] = test system: human cord blood mast cells; details: cited from earlier work
[4] = test system: B6SJL-Tg SOD1G93A female mice; details: 30 mg/kg/day; from 90 to 120 days
Non-Tg SOD1G93A mice = experiment: negative intervention control in Non-Tg SOD1G93A mice; details: 100 mg/kg/day
SOD1G93A rats = experiment: ALS model in SOD1G93A rats: disease onset and survival
[5] = test system: B6SJL-Tg SOD1G93A female mice
[6] = test system: B6SJL-Tg SOD1G93A female mice; details: for Age of onse, Averages / Age of deal, Averages: average of 8 mice; for Age of onse, Averages: control average 101.25; for Age of deal, Averages: control average 135

CC/C(=C(\c1ccccc1)c1ccc(OCCN(C)C)cc1)c1ccccc1 [Tamoxifen]
Mouse model (ALS mouse model): Overall positive
Human Safety [1]: Relatively safe
Benefits (ALS patients): survival benefit

Nc1nc2ccc(OC(F)(F)F)cc2s1 [riluzole, 6-(trifluoromethoxy)benzothiazol-2-amine]
Benefits (ALS patients): Positive transient impact

Cc1ccc(NC(=O)c2ccc(CN3CCN(C)CC3)cc2)cc1Nc1nc(-c2cccnc2)cs1 [masitinib, 4-(4-methylpiperazin-1-ylmethyl)-N-[4-methyl-3-(4-pyridin-3ylthiazol-2-ylamino)phenyl]benzamide]
tolerability, difference between doses ([2]; 3 mg/kg/day versus 6 mg/kg/day): no obvious difference
tolerability ([2]; dosage up to 6 mg/kg/day): well-tolerated
FccRI-mediated degranulation of human cord blood mast cells [3]: inhibition
weight loss versus Tg Ctrl [4]: reduced weight loss during the first stage of the disease
results in Non-Tg animals, masitinib versus water (Non-Tg SOD1G93A mice): showed similar results to one another
survival without paralytic symptoms or weight loss (two rats of the group) (SOD1G93A rats; 40 mg/kg oral): 7 months
early paralysis and death (two rats of the group) (SOD1G93A rats; 40 mg/kg oral once a day Monday to Friday): died before week 6
survival compared to control (vehicle) (SOD1G93A rats; 40 mg/kg oral, 5 times a week, 3 times a week from week 6, male rats from age 120 days, n=6): prolonged the survival; also recorded: survived longer
disease onset compared to vehicle (SOD1G93A rats; 40 mg/kg oral, after week 6): develop the disease later
hind-limb grip strength curve versus Tg Ctrl ([5]; 30 mg/kg/day): significantly improved the grip strength curve
hind-limb grip strength versus Tg Ctrl ([5]; 100 mg/kg/day, from 90 to 120 days): improved the grip strength during the first stage of the disease
median survival compared with positive control group ([6]; 30 mg/kg/day): higher
Age of onse ([6]; age of symptoms onset, individual mice, 100 mg/kg/day oral gavage Monday-Friday from 90 days old, 100 mg/kg/day): 109 (2×) and 111 (5×) and 115
Age of onse, Averages ([6]; 30 mg/kg/day): 111.375
Age of deal, Averages ([6]; 30 mg/kg/day): 139.625
Age of onse, Averages ([6]; 100 mg/kg/day): 111
Age of deal, Averages ([6]; 100 mg/kg/day): 132.125
symptoms onset versus positive control ([6]; both doses, 30 or 100 mg/kg/day): significant delay of symptoms onset
survival versus positive control ([6]; righting reflex as surrogate for survival): trend to improve survival
